Measurements published in patent US8796323B2, “Defensin-like molecules as novel antimicrobial agents” (University of Maryland, Baltimore, priority 2010, dated 2014).
Entries after “also recorded” stand apart in the source; their conditions may differ.

Experiments:
[1] = Surface Plasmon Resonance binding of HNP1 peptides and Lipid II; conditions: ratio of Kd values
Method: Short-chain water-soluble Lipid II containing a lipid tail of three isoprene units was generated and purified essentially as described in Breukink, E., et al., 2003, “Lipid II is an intrinsic component of the pore induced by nisin in bacterial membranes,” J Biol Chem 278:19898-19903.
Typically, M. flavus vesicles (120 μmol lipid-Pi) were incubated together with 500 μmol UDP-GlcNAc, 500 μmol UDP-MurNAC-pentapeptide and 400 μmol farnesyl phosphate in 100 mM Tris-HCl pH 8.0, 5 mM MgCl2. The incubation lasted two hours at room temperature for 3-P. The synthesis of 3-Lipid II was followed using RP-8 reversed phase TLC (Merck) developed in 75% methanol. […]
Surface Plasmon Resonance binding experiments were carried out on a BIAcore T100 system (BIAcore Inc., Piscataway, N.Y.) at 25° C. […] Association and dissociation were assessed for 300 and 600 second, respectively. […] Binding isotherms were analyzed with manufacturer-supplied software for BIAcore T100 and/or GraphPad Prism 4.0.
The inventors used a Surface Plasmon Resonance (SPR) approach to determine the binding of HNP1 to Lipid II directly. Initial binding of L-HNP1, D-HNP1 and linear HNP1 to soluble Lipid II immobilized on the chip surface was determined. […]

[2] = system: S. aureus; conditions: literature (Ericksen 2005; Wei 2009); cited from earlier work
[3] = ANTS/DPX leakage assay from large unilamellar vesicles
Method: Large unilamellar vesicles (LUVs) with the low molecular weight fluorophore/quencher pair (ANTS/DPX) encapsulated were prepared using the standard extrusion method. Specifically, phospholipids were dissolved in chloroform at a desired molar ratio, dried as a film by solvent evaporation. After removal of residual solvent, the lipid film was hydrated in the fluorescent solution containing 5 mM HEPES, 12.5 mM ANTS, 45 mM DPX, and 20 mM NaCl, pH 7.0, freeze-thawed for 10 cycles and extruded 10 times through 0.4-μm polycarbonate membranes. LUVs were separated from unencapsulated materials by gel filtration chromatography using a Sepharose CL-4B column eluted with 5 mM HEPES, 100 mM NaCl, pH 7.4 (high-salt). For leakage assays in a low-salt buffer, purified vesicles were further diluted with 5 mM HEPES containing 10 mM NaCl, pH 7.4.
Leakage of ANTS from LUVs, monitored on a LS-55 Perkin Elmer luminescence spectrometer, was characterized by an increase in fluorescence, which was quenched by DPX when encapsulated together inside liposomes (Ellens, H., et al., 1985, “H+- and Ca2+-induced fusion and destabilization of liposomes,” Biochemistry 24:3099-3106). 270 μl ANTS/DPX-encapsulated LUVs (in either high-salt or low-salt buffers) were added to each well of a 96-well plate to a final lipid concentration of 600 μM. 30 μl H2O was added to the first well of each row as a blank, and 30 μl 2.5% (v/v) Triton X-100 to the last (twelfth) well as the control for 100% leakage. Upon addition of 30 μl of a twofold dilution series of defensin, the fluorescence signal was recorded at 515 nm with an excitation wavelength of 353 nm, 10 nm bandwidths and a 390 nm cut-off filter in the emission path. Percent leakage is expressed as: % leakage=((Ft−F0)/(F100−F0))×100 where Ft is the fluorescence determined at different time points after addition of defensin, F0 is the background fluorescence of the “blank” cells, and F100 is the fluorescence of the control cells containing 0.25% Triton X-100. Lipid II Purification
Defensins are believed to kill bacteria by permeabilizing the membrane, causing leakage of intracellular content and eventually cell lysis and death. The present inventors tested the ability of six human α-defensins to induce leakage of fluorophores encapsulated in LUVs (See FIG. 1). […] (A) At high salt concentration (5 mM HEPES, 100 mM NaCl, pH 7.4). (B) At low salt concentration (5 mM HEPES, 10 mM NaCl, pH 7.4). LUVs were 250 nm in diameter and 600 μM (phospholipids) in concentration.
(A) Effects of surface charge on HNP1-induced leakage from LUVs of four different compositions: POPC (circle, surface charge=0), POPC/POPG=3:2 (square, surface charge=−0.4), POPC/POPG=2:3 (triangle, surface charge=−0.6), and POPG (diamond, surface charge=−1). (B) LUV (POPG:DPPC 1:1) leakage induced by L-HNP1 (circles) or D-HNP1 (squares). A two-fold dilution series of HNP1 peptides from 0.19 to 100 μg/ml was incubated with 600 μM LUVs for one hour before readings were taken. Error bars indicate the standard error in triplicate experiments.

Substance: HNP1: α-defensin Human Neutrophil Peptide 1, chemically synthesized and folded
- affinity for Lipid II, L-HNP1 relative to D-HNP1 [1]: approximately five times higher affinity than the D-peptide
- bactericidal activity against S. aureus / Gram-positive bacteria [2]: potently bactericidal; also recorded: kills Gram-positive bacteria very efficiently
- leakage from LUVs, L- versus D-enantiomer ([3]; DPPC/POPG (1:1) LUVs, FIG. 2B): equally efficiently
- HNP1-induced leakage from LUVs composed solely of neutral lipid POPC ([3]; POPC LUVs, surface charge 0, 0.19 to 100 μg/ml, regardless of incubation time): resistant to the attack by HNP1 at all concentrations used
- HNP1-induced leakage from LUVs as POPG content increases ([3]; POPC:POPG 1:0, 3:2, 2:3, 0:1, POPG 0, 40%, 60%, 100%): increasingly pronounced
- membrane activity (leakage of ANTS-DPX from POPG LUVs) ([3]; POPG LUVs, panel of six human α-defensins, FIG. 1): reduced
